Experimental data: PMC11992225, “Antibacterial compounds against non-growing and intracellular bacteria” (npj Antimicrobials and Resistance, 2025)
Where two headings read alike, the source gives them in different places.

What was measured:
[1] = tested on: non-growing UPEC CFT073; test: Dilution-regrowth assay (screen, hit validation, dose-response) on stationary-phase UPEC; format: cell-based, Escherichia coli; conditions: for Regrowth: OD600 after dilution into drug-free medium (mean): OD600 at 6h or 8h
Method in brief: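 Regrowth (OD600 after 6 h, 37 °C) of diluted non-growing CFT073, following 24 h compound treatment of 24 h stationary cultures, defines activity relative to untreated control. Screen at 20 µM, validation at 20, 10, 5 µM (duplicates), dose–response in three biological replicates fitted by five-parameter logistic.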

[2] = tested on: non-growing S. aureus DSM2569; test: Dilution-regrowth assay (OD600, start-growth-time) on stationary-phase S. aureus; format: cell-based, Staphylococcus aureus; conditions: for Regrowth: OD600 after dilution into drug-free medium (mean): OD600 at 6h or 8h
Method in brief: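 Non-growing S. aureus was tested in a dilution-regrowth format. Cells were cultured and treated for 24 h in 1:4 diluted CA-MHB, pH 7.4, then diluted into drug-free medium, and OD600 was measured every 20 min. Start-growth-time was the time OD600 passed 0.12. Dose-response curves were fitted with a five-parameter logistic equation to derive EC50.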

[3] = tested on: intracellular S. flexneri 5a M90T in TC7 cells; test: microbe, parasite or virus in culture; format: cell-based, Shigella flexneri
[4] = TC7 cells infected with GFP-expressing S. flexneri, 14 h treatment
[5] = E. coli, LPM pH 5.5, regrowth delay of non-growing bacteria, 24 h treatment, OD600 6 h after 2500-fold dilution, read-out: EC50
[6] = S. aureus, regrowth delay of non-growing bacteria, 1:4 CA-MHB pH 7.4, 24 h treatment, OD600 8 h after dilution, read-out: EC50

CO[C@@]12[C@H](COC(N)=O)C3=C(C(=O)C(C)=C(N)C3=O)N1C[C@@H]1N[C@@H]12 [Mitomycin C] was tested, and the “Regrowth, OD600 at 6h or 8h after dilution into drug-free medium (average)” value ([1]; E. coli in 1:4 CA-MHB (pH 7.4), drug concentration 0.25) was 0.575, the “Regrowth, OD600 at 6h or 8h after dilution into drug-free medium (average)” value ([1]; E. coli in 1:4 CA-MHB (pH 7.4), drug concentration 0.5) was 0.556 and the “Regrowth, OD600 at 6h or 8h after dilution into drug-free medium (average)” value ([1]; E. coli in 1:4 CA-MHB (pH 7.4), drug concentration 1) was 0.551. The “Regrowth, OD600 at 6h or 8h after dilution into drug-free medium (average)” value ([1]; E. coli in 1:4 CA-MHB (pH 7.4), drug concentration 2.5) was 0.482, the “Regrowth, OD600 at 6h or 8h after dilution into drug-free medium (average)” value ([1]; E. coli in 1:4 CA-MHB (pH 7.4), drug concentration 5) was 0.179 and the “Regrowth, OD600 at 6h or 8h after dilution into drug-free medium (average)” value ([1]; E. coli in 1:4 CA-MHB (pH 7.4), drug concentration 10) was 0.065. For the same compound, the “Regrowth, OD600 at 6h or 8h after dilution into drug-free medium (average)” value ([1]; E. coli in 1:4 CA-MHB (pH 7.4), drug concentration 30) was 0.063, the “Regrowth, OD600 at 6h or 8h after dilution into drug-free medium (average)” value ([1]; E. coli in LPM (pH 5.5), drug concentration 0.25) was 0.474 and the “Regrowth, OD600 at 6h or 8h after dilution into drug-free medium (average)” value ([1]; E. coli in LPM (pH 5.5), drug concentration 0.5) was 0.440. For the same compound, the “Regrowth, OD600 at 6h or 8h after dilution into drug-free medium (average)” value ([1]; E. coli in LPM (pH 5.5), drug concentration 1) was 0.294, the “Regrowth, OD600 at 6h or 8h after dilution into drug-free medium (average)” value ([1]; E. coli in LPM (pH 5.5), drug concentration 2.5) was 0.140 and the “Regrowth, OD600 at 6h or 8h after dilution into drug-free medium (average)” value ([1]; E. coli in LPM (pH 5.5), drug concentration 5) was 0.136. The “Regrowth, OD600 at 6h or 8h after dilution into drug-free medium (average)” value ([1]; E. coli in LPM (pH 5.5), drug concentration 10) was 0.136, the “Regrowth, OD600 at 6h or 8h after dilution into drug-free medium (average)” value ([1]; E. coli in LPM (pH 5.5), drug concentration 30) was 0.134 and the EC50 ([1]; Escherichia coli, pH 5.5) was 0.706 µM. The EC50 ([1]; Escherichia coli, pH 5.5, read-out: EC50 (regrowth inhibition curve, Fig. S4)) was 0.69 µM, the EC50 ([1]; Escherichia coli, pH 7.4) was 3.68 µM and the EC50 ([1]; Escherichia coli, pH 7.4, read-out: EC50 (regrowth inhibition curve, Fig. S4)) was 3.77 µM. For the same compound, the “activity against non-growing UPEC in LPM (pH 5.5) compared to 1:4 CA-MHB (pH 7.4)” value ([1]; regrowth delay and killing, Figs. 2 and 3) was “potentiated by the low pH”, the “Regrowth, OD600 at 6h or 8h after dilution into drug-free medium (average)” value ([2]; S. aureus, drug concentration 0.1) was 0.433 and the “Regrowth, OD600 at 6h or 8h after dilution into drug-free medium (average)” value ([2]; S. aureus, drug concentration 0.5) was 0.163. The “Regrowth, OD600 at 6h or 8h after dilution into drug-free medium (average)” value ([2]; S. aureus, drug concentration 2.5) was 0.087, the “Regrowth, OD600 at 6h or 8h after dilution into drug-free medium (average)” value ([2]; S. aureus, drug concentration 10) was 0.106 and the EC50 ([2]; Staphylococcus aureus, DSM2569, pH 7.4) was 0.129 µM. For the same compound, the IC50 ([3]; Shigella flexneri, TC7, 14 h) was 0.451 µM, the “Fluorescence intensity (RFU), Mean, 2 x MIC” value [3, 4] was 2991.58 RFU and the “Fluorescence intensity (RFU), Mean, 4 x MIC” value [3, 4] was 2579.31 RFU. The “Fluorescence intensity (RFU), Mean, 8 x MIC” value [3, 4] was 2274.5 RFU, the “Fluorescence intensity (RFU), Mean, 16 x MIC” value [3, 4] was 1986.92 RFU and the “Fluorescence intensity (RFU), Mean, 32 x MIC” value [3, 4] was 1617.58 RFU. For the same compound, the “Fluorescence intensity (RFU), Mean, MIC” value [3, 4] was 3708.94 RFU.
With N[C@@H]1CN(c2c(F)cc3c(=O)c(C(=O)O)cn([C@@H]4C[C@@H]4F)c3c2Cl)CC12CC2 [Sitafloxacin] the EC50 [1, 5] was 10.8 µM, the EC50 ([1]; E. coli, pH 7.4, regrowth delay of non-growing bacteria, 1:4 CA-MHB, 24 h treatment, OD600 6 h after 2500-fold dilution, read-out: EC50) was 0.187 µM and the EC50 [2, 6] was 0.106 µM. For the same compound, the “Fluorescence intensity (RFU), Mean, 2 x MIC” value [3, 4] was 4007.53 RFU, the “Fluorescence intensity (RFU), Mean, 4 x MIC” value [3, 4] was 3422.83 RFU and the “Fluorescence intensity (RFU), Mean, 8 x MIC” value [3, 4] was 3200.25 RFU. For the same compound, the “Fluorescence intensity (RFU), Mean, 16 x MIC” value [3, 4] was 2414.89 RFU, the “Fluorescence intensity (RFU), Mean, 32 x MIC” value [3, 4] was 2083.61 RFU and the “Fluorescence intensity (RFU), Mean, MIC” value [3, 4] was 5217.75 RFU. The IC50 ([3]; intracellular S. flexneri in TC7 cells, GFP fluorescence after 14 h treatment, read-out: IC50) was 0.025 µM.
With NC1CCN(c2c(F)cc3c(=O)c(C(=O)O)cn(C4CC4)c3c2Cl)C1 (centres unmarked) [Clinafloxacin] the EC50 ([1]; Escherichia coli, E. coli, pH 7.4, regrowth delay of non-growing bacteria, 1:4 CA-MHB, 24 h treatment, OD600 6 h after 2500-fold dilution, read-out: EC50) was 0.906 µM, the “OD600 at 6h or 8h after dilution into drug-free medium (regrowth)” value ([2]; S. aureus, drug conc 0.1) was 0.489 and the “OD600 at 6h or 8h after dilution into drug-free medium (regrowth)” value ([2]; S. aureus, drug conc 0.5) was 0.280. For the same compound, the “OD600 at 6h or 8h after dilution into drug-free medium (regrowth)” value ([2]; S. aureus, drug conc 2.5) was 0.154, the “OD600 at 6h or 8h after dilution into drug-free medium (regrowth)” value ([2]; S. aureus, drug conc 10) was 0.126 and the EC50 ([2]; Staphylococcus aureus, DSM2569, S. aureus, regrowth delay of non-growing bacteria, 1:4 CA-MHB pH 7.4, 24 h treatment, OD600 8 h after dilution, read-out: EC50) was 0.205 µM. The IC50 ([3]; Shigella flexneri, TC7, 14 h) was 0.01 µM, the “Fluorescence intensity (RFU), Mean, 0.25 x MIC” value [3, 4] was 7691.46 RFU and the “Fluorescence intensity (RFU), Mean, 0.5 x MIC” value [3, 4] was 5544.33 RFU. The “Fluorescence intensity (RFU), Mean, 2 x MIC” value [3, 4] was 3160.53 RFU, the “Fluorescence intensity (RFU), Mean, 4 x MIC” value [3, 4] was 3034.56 RFU and the “Fluorescence intensity (RFU), Mean, 8 x MIC” value [3, 4] was 2732.08 RFU. The “Fluorescence intensity (RFU), Mean, 16 x MIC” value [3, 4] was 2021.17 RFU, the “Fluorescence intensity (RFU), Mean, 32 x MIC” value [3, 4] was 1621.75 RFU and the “Fluorescence intensity (RFU), Mean, MIC” value [3, 4] was 4423.92 RFU.
For CO[C@H]1/C=C/O[C@@]2(C)Oc3c(C)c(O)c4c(O)c(c(/C=N/N=C/N5CCCCC5)c(O)c4c3C2=O)NC(=O)/C(C)=C\C=C\[C@H](C)[C@H](O)[C@@H](C)[C@@H](O)[C@@H](C)[C@H](OC(C)=O)[C@@H]1C [FCE-22250], the “Regrowth: OD600 after dilution into drug-free medium (mean)” value ([1]; E. coli in 1:4 CA-MHB (pH 7.4), concentration 0.25) was 0.613, the “Regrowth: OD600 after dilution into drug-free medium (mean)” value ([1]; E. coli in 1:4 CA-MHB (pH 7.4), concentration 0.5) was 0.587 and the “Regrowth: OD600 after dilution into drug-free medium (mean)” value ([1]; E. coli in 1:4 CA-MHB (pH 7.4), concentration 1) was 0.569. The “Regrowth: OD600 after dilution into drug-free medium (mean)” value ([1]; E. coli in 1:4 CA-MHB (pH 7.4), concentration 2.5) was 0.549, the “Regrowth: OD600 after dilution into drug-free medium (mean)” value ([1]; E. coli in 1:4 CA-MHB (pH 7.4), concentration 5) was 0.529 and the “Regrowth: OD600 after dilution into drug-free medium (mean)” value ([1]; E. coli in 1:4 CA-MHB (pH 7.4), concentration 10) was 0.515. The “Regrowth: OD600 after dilution into drug-free medium (mean)” value ([1]; E. coli in 1:4 CA-MHB (pH 7.4), concentration 30) was 0.347, the “Regrowth: OD600 after dilution into drug-free medium (mean)” value ([1]; E. coli in LPM (pH 5.5), concentration 0.25) was 0.566 and the “Regrowth: OD600 after dilution into drug-free medium (mean)” value ([1]; E. coli in LPM (pH 5.5), concentration 0.5) was 0.535. For the same compound, the “Regrowth: OD600 after dilution into drug-free medium (mean)” value ([1]; E. coli in LPM (pH 5.5), concentration 1) was 0.500, the “Regrowth: OD600 after dilution into drug-free medium (mean)” value ([1]; E. coli in LPM (pH 5.5), concentration 2.5) was 0.418 and the “Regrowth: OD600 after dilution into drug-free medium (mean)” value ([1]; E. coli in LPM (pH 5.5), concentration 5) was 0.299. The “Regrowth: OD600 after dilution into drug-free medium (mean)” value ([1]; E. coli in LPM (pH 5.5), concentration 10) was 0.206, the “Regrowth: OD600 after dilution into drug-free medium (mean)” value ([1]; E. coli in LPM (pH 5.5), concentration 30) was 0.134 and the EC50 [1, 5] was 3.97 µM. The EC50 ([1]; LPM pH 5.5 (red curve), medium assigned by comparison with Dataset 1, read-out: EC50 (regrowth inhibition curve, Fig. S4)) was 3.45 µM, the “Regrowth: OD600 after dilution into drug-free medium (mean)” value ([2]; S. aureus, concentration 0.1) was 0.461 and the “Regrowth: OD600 after dilution into drug-free medium (mean)” value ([2]; S. aureus, concentration 0.5) was 0.312. The “Regrowth: OD600 after dilution into drug-free medium (mean)” value ([2]; S. aureus, concentration 2.5) was 0.178, the “Regrowth: OD600 after dilution into drug-free medium (mean)” value ([2]; S. aureus, concentration 10) was 0.092 and the EC50 [2, 6] was 0.278 µM. For the same compound, the “Fluorescence intensity (RFU), Mean, 0.0625 x MIC” value ([3]; TC7 cells infected with GFP-expressing S. flexneri, 14 h treatment, 0.0625 x MIC) was 8508.25 RFU, the “Fluorescence intensity (RFU), Mean, 0.125 x MIC” value ([3]; TC7 cells infected with GFP-expressing S. flexneri, 14 h treatment, 0.125 x MIC) was 9069.58 RFU and the “Fluorescence intensity (RFU), Mean, 0.25 x MIC” value [3, 4] was 2896.5 RFU. For the same compound, the “Fluorescence intensity (RFU), Mean, 0.5 x MIC” value [3, 4] was 1857.94 RFU, the “Fluorescence intensity (RFU), Mean, 2 x MIC” value [3, 4] was 1320.58 RFU and the “Fluorescence intensity (RFU), Mean, 4 x MIC” value [3, 4] was 1217.94 RFU. The “Fluorescence intensity (RFU), Mean, 8 x MIC” value [3, 4] was 1111.33 RFU, the “Fluorescence intensity (RFU), Mean, 16 x MIC” value [3, 4] was 979.361 RFU and the “Fluorescence intensity (RFU), Mean, MIC” value [3, 4] was 1487.86 RFU.
